ChEMBL document CHEMBL1201862, “PubChem BioAssay data set” (2004)
Values belong to the compound of their own block, whether it stands above or below them. Active and inactive are the calls of the source.

Tests used:
[1] = target: T1, Cannabinoid receptor 2 (Homo sapiens, UniProt P34972); experiment: SAR analysis of antagonists of the Cannabinoid Receptor 2 using an Image-Based Assay - Set 2. [Related pubchem assays (depositor defined):AID1961, AID1965]; assay type: functional
[2] = target: T2, G-protein coupled receptor 55 (Homo sapiens, UniProt Q9Y2T6); experiment: SAR analysis of selective Agonists of GPR55 using an Image-Based Assay - Set 2. [Related pubchem assays (depositor defined):AID1961, AID1965]; assay type: functional
T2 sequence (Q9Y2T6 whole entry): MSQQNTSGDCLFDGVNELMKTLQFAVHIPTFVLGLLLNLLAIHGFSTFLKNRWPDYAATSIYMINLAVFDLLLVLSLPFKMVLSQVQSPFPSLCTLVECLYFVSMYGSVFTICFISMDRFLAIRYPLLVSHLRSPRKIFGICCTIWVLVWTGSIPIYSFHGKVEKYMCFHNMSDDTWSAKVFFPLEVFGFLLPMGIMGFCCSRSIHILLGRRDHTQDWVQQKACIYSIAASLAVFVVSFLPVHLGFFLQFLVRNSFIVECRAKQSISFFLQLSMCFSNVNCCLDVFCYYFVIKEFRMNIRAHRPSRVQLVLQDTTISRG

[3] = target: T1, Cannabinoid receptor 2; experiment: SAR analysis of agonists of the Cannabinoid Receptor 2 using an Image-Based Assay - Set 2. [Related pubchem assays (depositor defined):AID1961, AID1965]; assay type: functional
[4] = target: T3, G-protein coupled receptor 35 (Homo sapiens, UniProt Q9HC97); experiment: SAR analysis of Antagonists of the GPR35 Receptor using an Image-Based Assay - Set 4. [Related pubchem assays (depositor defined):[…]]; assay type: functional
T3 sequence (Q9HC97 whole entry): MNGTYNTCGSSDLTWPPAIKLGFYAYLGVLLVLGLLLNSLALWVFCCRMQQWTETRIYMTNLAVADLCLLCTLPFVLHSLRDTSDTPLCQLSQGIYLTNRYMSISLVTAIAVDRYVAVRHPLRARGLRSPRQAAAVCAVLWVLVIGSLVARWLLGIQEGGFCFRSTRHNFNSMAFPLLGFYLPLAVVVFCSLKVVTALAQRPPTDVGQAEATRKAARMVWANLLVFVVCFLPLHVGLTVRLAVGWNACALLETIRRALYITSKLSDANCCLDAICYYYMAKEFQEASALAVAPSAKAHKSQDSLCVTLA

[5] = target: T3, G-protein coupled receptor 35; experiment: SAR analysis of Agonists of the GPR35 Receptor using an Image-Based Assay - Set 3. [Related pubchem assays (depositor defined):AID1961, AID1965]; assay type: functional
[6] = target: T4, Cannabinoid receptor 1 (Homo sapiens, UniProt P21554); experiment: SAR analysis of agonists of the Cannabinoid Receptor 1 using an Image-Based Assay - Set 3. [Related pubchem assays (depositor defined):AID1961, AID1965]; assay type: functional
T4 sequence (P21554 whole entry): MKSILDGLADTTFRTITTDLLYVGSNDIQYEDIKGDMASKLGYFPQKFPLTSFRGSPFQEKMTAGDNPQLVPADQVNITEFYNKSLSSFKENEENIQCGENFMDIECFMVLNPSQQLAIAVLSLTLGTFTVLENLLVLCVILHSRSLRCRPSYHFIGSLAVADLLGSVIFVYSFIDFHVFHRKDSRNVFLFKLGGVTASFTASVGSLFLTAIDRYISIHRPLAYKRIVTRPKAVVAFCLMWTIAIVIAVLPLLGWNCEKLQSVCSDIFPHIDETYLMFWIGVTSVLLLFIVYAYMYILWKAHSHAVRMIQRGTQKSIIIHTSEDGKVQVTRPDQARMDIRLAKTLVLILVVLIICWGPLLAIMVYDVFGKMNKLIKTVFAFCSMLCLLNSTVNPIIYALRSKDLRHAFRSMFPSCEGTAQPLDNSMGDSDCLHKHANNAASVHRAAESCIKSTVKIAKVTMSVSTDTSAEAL

[7] = target: T4, Cannabinoid receptor 1; experiment: SAR analysis of antagonists of the Cannabinoid Receptor 1 using an Image-Based Assay - Set 3. [Related pubchem assays (depositor defined):AID1961, AID1965]; assay type: functional
[8] = target: T4, Cannabinoid receptor 1; experiment: SAR analysis of antagonists of the Cannabinoid Receptor 1 using an Image-Based Assay - Set 2. [Related pubchem assays (depositor defined):AID2013, AID2026]; assay type: functional
[9] = target: T1, Cannabinoid receptor 2; experiment: SAR analysis of agonists of the Cannabinoid Receptor 2 using an Image-Based Assay. [Related pubchem assays (depositor defined):AID2013, AID2026]; assay type: functional
[10] = target: T3, G-protein coupled receptor 35; experiment: SAR analysis of Antagonists of the GPR35 Receptor using an Image-Based Assay - Set 3. [Related pubchem assays (depositor defined):AID2013, AID2026]; assay type: functional
[11] = target: T4, Cannabinoid receptor 1; experiment: SAR analysis of agonists of the Cannabinoid Receptor 1 using an Image-Based Assay - Set 2. [Related pubchem assays (depositor defined):AID2013, AID2026]; assay type: functional
[12] = target: T1, Cannabinoid receptor 2; experiment: SAR analysis of antagonists of the Cannabinoid Receptor 2 using an Image-Based Assay. [Related pubchem assays (depositor defined):AID2013, AID2026]; assay type: functional
[13] = target: T2, G-protein coupled receptor 55; experiment: GPR55 antagonist potency of analogs, SAR follow-up, imaging, U2OS, beta-arrestin-GFP, LPI agonist, set 2 (AID 2820); assay type: functional
[14] = target: T3, G-protein coupled receptor 35; experiment: SAR analysis of Agonists of the GPR35 Receptor using an Image-Based Assay - Set 2. [Related pubchem assays (depositor defined):AID2013, AID2026]; assay type: functional
[15] = target: T2, G-protein coupled receptor 55; experiment: GPR55 antagonists blocking LPI-driven arrestin recruitment, primary screen, imaging, U2OS, beta-arrestin-GFP, LPI agonist (AID 2013); assay type: functional;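 further: antagonist potency measured as reduced agonist-driven arrestin aggregation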
[16] = target: Sphingosine 1-phosphate receptor 4 (Homo sapiens, UniProt O95977); experiment: Fluorescence dose response cell-based high throughput screening assay for agonists of the Sphingosine 1-Phosphate Receptor 4 (S1P4). [Related pubchem assays: 1509 (Primary screen.), 1523 (Confirmation screen in triplicates.)]; assay type: functional
Sphingosine 1-phosphate receptor 4, sequence (O95977 whole entry): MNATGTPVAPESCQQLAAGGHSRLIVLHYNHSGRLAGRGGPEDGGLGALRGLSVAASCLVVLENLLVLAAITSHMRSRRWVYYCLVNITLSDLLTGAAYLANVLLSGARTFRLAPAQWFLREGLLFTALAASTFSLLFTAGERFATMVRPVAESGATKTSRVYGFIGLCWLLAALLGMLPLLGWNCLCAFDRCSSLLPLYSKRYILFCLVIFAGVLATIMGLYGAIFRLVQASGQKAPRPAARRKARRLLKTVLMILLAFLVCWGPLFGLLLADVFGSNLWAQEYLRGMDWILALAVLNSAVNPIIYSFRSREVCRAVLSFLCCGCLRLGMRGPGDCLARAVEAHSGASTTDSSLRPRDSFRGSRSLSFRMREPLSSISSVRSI

[17] = target: Sphingosine 1-phosphate receptor 1 (Homo sapiens, UniProt P21453); experiment: Fluorescence-based counterscreen assay for S1P4 agonists: Cell-based dose response high throughput screening assay to identify agonists of the Sphingosine 1-Phosphate Receptor 1 (S1P1). [Related pubchem assays (depositor defined):AID1509, AID1523, AID1801, AID463107, AID463118, AID463119, AID463122, AID463123, AID463129, AID463225, AID504400, AID504460]; assay type: functional
Sphingosine 1-phosphate receptor 1, sequence (P21453 whole entry): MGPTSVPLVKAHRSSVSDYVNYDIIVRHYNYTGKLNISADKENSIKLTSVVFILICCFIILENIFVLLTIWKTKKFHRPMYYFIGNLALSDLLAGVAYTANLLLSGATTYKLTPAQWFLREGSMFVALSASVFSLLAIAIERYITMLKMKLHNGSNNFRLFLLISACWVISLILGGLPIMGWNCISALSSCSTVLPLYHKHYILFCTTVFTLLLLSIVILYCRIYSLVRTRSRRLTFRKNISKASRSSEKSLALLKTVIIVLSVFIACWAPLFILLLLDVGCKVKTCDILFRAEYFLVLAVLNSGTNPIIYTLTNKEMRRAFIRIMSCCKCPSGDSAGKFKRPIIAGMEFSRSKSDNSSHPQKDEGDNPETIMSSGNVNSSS

[18] = target: Delta-type opioid receptor (Homo sapiens, UniProt P41143); experiment: SAR Analysis of Agonists of the DOR Receptor using an Image-Based Assay - Set 3. [Related pubchem assays (depositor defined):AID1777, AID1786]; assay type: functional
Delta-type opioid receptor, sequence (P41143 whole entry): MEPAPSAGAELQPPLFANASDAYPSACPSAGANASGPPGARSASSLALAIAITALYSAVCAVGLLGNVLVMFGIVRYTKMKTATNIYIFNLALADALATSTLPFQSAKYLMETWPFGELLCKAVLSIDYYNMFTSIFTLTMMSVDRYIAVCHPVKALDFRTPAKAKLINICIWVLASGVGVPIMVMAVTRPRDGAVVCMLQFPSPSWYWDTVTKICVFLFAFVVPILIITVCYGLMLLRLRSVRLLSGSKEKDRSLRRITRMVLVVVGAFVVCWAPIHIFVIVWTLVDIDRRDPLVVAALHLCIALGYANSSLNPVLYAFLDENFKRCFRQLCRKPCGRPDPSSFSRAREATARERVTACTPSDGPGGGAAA

[19] = target: T5, Kappa-type opioid receptor (Homo sapiens, UniProt P41145); experiment: KOR agonist analogs, arrestin-GFP redistribution, SAR follow-up, imaging, image-based, set 3 (AID 488833); assay type: functional
T5 sequence (P41145 whole entry): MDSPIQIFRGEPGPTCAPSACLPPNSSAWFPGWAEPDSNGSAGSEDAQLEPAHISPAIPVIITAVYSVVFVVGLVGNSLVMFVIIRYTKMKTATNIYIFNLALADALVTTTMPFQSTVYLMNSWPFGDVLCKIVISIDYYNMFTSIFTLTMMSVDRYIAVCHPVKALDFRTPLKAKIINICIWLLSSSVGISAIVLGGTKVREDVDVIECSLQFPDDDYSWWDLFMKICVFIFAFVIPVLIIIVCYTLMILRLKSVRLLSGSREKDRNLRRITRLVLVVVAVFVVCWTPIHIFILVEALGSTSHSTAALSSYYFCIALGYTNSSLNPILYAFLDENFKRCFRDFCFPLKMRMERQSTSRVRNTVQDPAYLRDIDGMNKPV

[20] = target: Mu-type opioid receptor (Homo sapiens, UniProt P35372); experiment: SAR Analysis of Agonists of the MOR Receptor using an Image-Based Assay - Set 3. [Related pubchem assays (depositor defined):AID1777, AID1785, AID1786, AID1966, AID2133, AID2136, AID2284, AID2285, AID2352]; assay type: functional
Mu-type opioid receptor, sequence (P35372 whole entry): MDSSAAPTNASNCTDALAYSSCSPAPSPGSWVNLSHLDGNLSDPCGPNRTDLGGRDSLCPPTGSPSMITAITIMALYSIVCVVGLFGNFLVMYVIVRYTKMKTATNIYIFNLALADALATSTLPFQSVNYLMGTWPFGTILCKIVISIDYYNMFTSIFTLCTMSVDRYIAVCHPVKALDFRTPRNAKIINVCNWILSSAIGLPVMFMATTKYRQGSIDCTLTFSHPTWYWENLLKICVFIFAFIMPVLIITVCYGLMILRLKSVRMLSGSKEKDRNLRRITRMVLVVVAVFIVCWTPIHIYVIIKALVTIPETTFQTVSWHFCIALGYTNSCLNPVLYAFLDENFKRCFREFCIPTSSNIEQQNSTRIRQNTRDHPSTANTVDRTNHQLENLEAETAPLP

[21] = target: T5, Kappa-type opioid receptor; experiment: SAR analysis of small molecule agonists of the kappa opioid receptor via a luminescent beta-arrestin assay - Set 3. [Related pubchem assays (depositor defined):AID1777, AID1785, AID1786, AID1966, AID2133, AID2136, AID2284, AID2500]; assay type: functional
[22] = target: T6, E3 ubiquitin-protein ligase XIAP (Homo sapiens, UniProt P98170); experiment: SAR analysis of Antagonists of XIAP-Bir3 domain of IAP-family anti-apoptotic proteins. [Related pubchem assays (depositor defined):AID1018, AID1449, AID1513, AID1514, AID1638]
T6 sequence (P98170 whole entry, the tested form may be a part): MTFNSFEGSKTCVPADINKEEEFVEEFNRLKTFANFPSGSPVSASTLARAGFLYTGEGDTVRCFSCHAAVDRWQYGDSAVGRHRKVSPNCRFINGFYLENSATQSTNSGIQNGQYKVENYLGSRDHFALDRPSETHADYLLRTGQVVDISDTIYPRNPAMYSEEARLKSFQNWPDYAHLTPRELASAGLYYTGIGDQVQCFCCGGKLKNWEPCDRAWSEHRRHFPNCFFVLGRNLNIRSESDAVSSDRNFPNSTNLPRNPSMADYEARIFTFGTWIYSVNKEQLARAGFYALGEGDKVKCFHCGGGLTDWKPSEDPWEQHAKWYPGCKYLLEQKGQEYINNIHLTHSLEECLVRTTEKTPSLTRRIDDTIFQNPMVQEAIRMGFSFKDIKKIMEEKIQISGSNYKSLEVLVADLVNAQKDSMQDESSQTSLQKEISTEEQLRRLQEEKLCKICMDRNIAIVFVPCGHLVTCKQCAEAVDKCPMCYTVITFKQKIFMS

[23] = target: T6, E3 ubiquitin-protein ligase XIAP; experiment: SAR analysis of Antagonists of IAP-family anti-apoptotic proteins. [Related pubchem assays (depositor defined):AID1018, AID1449, AID1513, AID1514, AID1638]
[24] = target: DNA damage-inducible transcript 3 protein (Mus musculus, UniProt P35639); assay type: functional, Cricetulus griseus
DNA damage-inducible transcript 3 protein, sequence (P35639 whole entry): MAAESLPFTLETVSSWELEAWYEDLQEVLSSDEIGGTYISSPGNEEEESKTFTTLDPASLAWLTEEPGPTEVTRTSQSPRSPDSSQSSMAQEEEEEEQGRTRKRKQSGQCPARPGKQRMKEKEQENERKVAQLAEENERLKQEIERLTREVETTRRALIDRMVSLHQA

[25] = Luminescence Cell-Based Dose Retest to Confirm Inhibitors of Cancer Stem Cells. [Related pubchem assays (depositor defined):AID2717, AID2721]; assay type: functional; details: Homo sapiens
[26] = target: T7, Coagulation factor XII (Homo sapiens, UniProt P00748); experiment: Factor XIIa Dose Response Confirmation from Single Well HTS. [Related pubchem assays (depositor defined):AID701]; assay type: functional
T7 sequence (P00748 whole entry): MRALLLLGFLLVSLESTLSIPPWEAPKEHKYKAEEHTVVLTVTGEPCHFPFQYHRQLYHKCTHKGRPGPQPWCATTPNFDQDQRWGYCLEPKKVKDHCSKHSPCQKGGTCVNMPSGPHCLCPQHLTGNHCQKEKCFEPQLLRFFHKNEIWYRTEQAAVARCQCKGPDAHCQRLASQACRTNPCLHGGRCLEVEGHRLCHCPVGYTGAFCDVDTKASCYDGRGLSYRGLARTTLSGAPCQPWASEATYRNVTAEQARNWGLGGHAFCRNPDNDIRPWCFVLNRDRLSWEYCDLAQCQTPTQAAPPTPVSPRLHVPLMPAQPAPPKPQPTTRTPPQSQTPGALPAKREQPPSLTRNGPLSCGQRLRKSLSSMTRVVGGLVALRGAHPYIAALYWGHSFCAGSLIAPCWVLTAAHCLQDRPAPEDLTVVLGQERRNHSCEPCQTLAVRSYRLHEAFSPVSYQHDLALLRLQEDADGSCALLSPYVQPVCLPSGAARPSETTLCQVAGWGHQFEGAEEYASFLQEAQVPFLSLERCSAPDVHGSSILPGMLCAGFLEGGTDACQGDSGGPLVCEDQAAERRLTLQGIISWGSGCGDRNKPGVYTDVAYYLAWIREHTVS

[27] = target: T8, Estrogen receptor (Homo sapiens, UniProt P03372);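 further: potency for inhibiting coactivator peptide recruitment to the receptor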
T8 sequence (P03372 whole entry): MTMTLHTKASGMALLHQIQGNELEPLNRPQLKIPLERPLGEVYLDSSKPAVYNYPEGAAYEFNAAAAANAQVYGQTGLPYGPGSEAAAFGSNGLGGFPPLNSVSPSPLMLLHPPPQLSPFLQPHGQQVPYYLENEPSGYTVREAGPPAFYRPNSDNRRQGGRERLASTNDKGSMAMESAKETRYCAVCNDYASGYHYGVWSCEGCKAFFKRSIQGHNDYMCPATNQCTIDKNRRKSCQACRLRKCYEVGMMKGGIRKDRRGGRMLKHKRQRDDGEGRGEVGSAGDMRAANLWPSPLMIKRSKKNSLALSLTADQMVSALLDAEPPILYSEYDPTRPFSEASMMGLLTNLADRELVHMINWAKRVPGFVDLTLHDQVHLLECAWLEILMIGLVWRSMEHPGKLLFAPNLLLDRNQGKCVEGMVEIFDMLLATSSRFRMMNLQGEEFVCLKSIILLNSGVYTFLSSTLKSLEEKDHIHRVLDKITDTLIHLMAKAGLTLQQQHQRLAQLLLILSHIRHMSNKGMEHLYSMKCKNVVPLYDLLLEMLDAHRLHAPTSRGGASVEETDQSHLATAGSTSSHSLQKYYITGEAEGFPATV

[28] = inhibitors of intracellular T. cruzi replication, confirmation, NIH3T3 host cells, beta-gal luminescence (AID 2044); assay type: functional, cell-based;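 further: intracellular parasites grown in NIH/3T3 mouse fibroblasts as host cells; luminescent beta-galactosidase reporter signal from transgenic T. cruzi replicating inside host cells; inhibitors lower the luminescence signal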
[29] = target: T9, Carboxy-terminal domain RNA polymerase II polypeptide A small phosphatase 1 (Homo sapiens, UniProt Q9GZU7); experiment: inhibitors of CTDSP1, concentration-response testing, biochemical assay, absorbance-based, actives from ultra-high-throughput screening (AID 540297); assay type: functional
T9 sequence (Q9GZU7 whole entry): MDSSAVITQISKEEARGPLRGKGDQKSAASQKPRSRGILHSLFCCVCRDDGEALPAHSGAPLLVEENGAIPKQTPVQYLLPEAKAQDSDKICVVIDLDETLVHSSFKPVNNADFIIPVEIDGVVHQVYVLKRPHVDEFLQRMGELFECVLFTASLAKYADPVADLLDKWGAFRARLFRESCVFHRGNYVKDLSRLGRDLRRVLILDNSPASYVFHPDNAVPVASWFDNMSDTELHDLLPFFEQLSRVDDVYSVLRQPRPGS

[30] = growth suppression of beta-catenin-knockout colon cells, dose response, cell-based, HCT116, human colon tumor (AID 1045); assay type: functional;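 further: HCT116 colon tumor cells with beta catenin knocked out; cells exposed to compound for 60 hours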
[31] = growth suppression of PTEN-null colon cells, dose response, cell-based, HCT116 PTEN knockout (AID 1047); assay type: functional;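 further: HCT116 colon tumor cells with PTEN knocked out; cells exposed to compound for 60 hours before readout; potency for loss of cell viability measured by luminescence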
[32] = cytotoxicity toward NIH3T3 fibroblasts, dose response, counter-screen, cell-based, ATP luminescence, mouse fibroblasts (AID 2010); assay type: functional;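 further: cells exposed to compound for about 90 hours before reading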
[33] = target: T5, Kappa-type opioid receptor; experiment: SAR analysis of small molecule antagonists of the kappa opioid receptor via a luminescent beta-arrestin assay - Set 4. [Related pubchem assays (depositor defined):AID1777, AID1778, AID1785, AID1786, AID1966, AID2133, AID2136, AID2285]; assay type: functional
[34] = target: T5, Kappa-type opioid receptor; experiment: SAR analysis of small molecule antagonists of the kappa opioid receptor via a luminescent beta-arrestin assay - Set 5. [Related pubchem assays (depositor defined):AID1778, AID1785]; assay type: functional
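Wherever AC50 is given: cells exposed to compound for roughly 70 hours or longer before luminescence read.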

T1 sequence (P34972 whole entry): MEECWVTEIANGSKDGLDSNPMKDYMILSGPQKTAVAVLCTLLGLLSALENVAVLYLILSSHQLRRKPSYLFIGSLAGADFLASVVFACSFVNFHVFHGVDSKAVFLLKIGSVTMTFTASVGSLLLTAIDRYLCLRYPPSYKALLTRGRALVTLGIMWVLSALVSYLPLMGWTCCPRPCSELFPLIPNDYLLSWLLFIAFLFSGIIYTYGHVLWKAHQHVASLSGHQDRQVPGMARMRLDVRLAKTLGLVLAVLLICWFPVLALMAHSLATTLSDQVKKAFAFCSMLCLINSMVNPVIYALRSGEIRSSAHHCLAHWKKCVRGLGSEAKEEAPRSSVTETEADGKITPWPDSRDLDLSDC

Compound: CC(C)c1cc(C(=O)OCC(=O)NC(=O)NCc2ccco2)c(O)c(C(C)C)c1
EC50 [16]: > 49.8 µM (not active) | EC50 [17]: > 49.8 µM (inactive)

Compound: Cc1ccc(COc2ccc(Br)cc2/C=N/O)cc1
Absolute IC50 (CHOP) [24]: 10 µM | AC50 [25]: 6.11 µM (active)

Compound: Cc1ccc2[nH]c(/C(C#N)=C\c3ccc(N4CCCCC4)c([N+](=O)[O-])c3)nc2c1
IC50 [26]: 1.02 µM (active) | IC50 [27]: 4.23 µM (active) | EC50 [28]: 2 µM (active) | IC50 [29]: 2.45 µM (active) | EC50 [30]: 22 µM (active) | EC50 [31]: 19.4 µM (active) | EC50 [32]: > 60 µM (inconclusive)

More lines, now with the values ahead:

IC50 [1]: > 32 µM (inactive) | EC50 [2]: > 32 µM (inactive) | EC50 [3]: > 32 µM (inactive) | IC50 [4]: > 32 µM (inactive) | EC50 [5]: > 32 µM (inactive) | EC50 [6]: > 32 µM (inactive) | IC50 [7]: > 32 µM (inactive)
Compound: CCN(CC)S(=O)(=O)c1ccc(N2CCC(C)CC2)c(C(=O)N2CCN(c3ccccc3)CC2)c1

IC50 [8]: 24.1 µM (inactive) | EC50 [9]: > 32 µM (inactive) | IC50 [10]: > 32 µM (inactive) | EC50 [11]: > 32 µM (inactive) | IC50 [12]: > 32 µM (inactive) | IC50 [13]: 1.44 µM (active) | EC50 [14]: > 32 µM (inactive) | IC50 [15]: 0.869 µM (active)
Compound: Cc1cccc(-c2cc(C(=O)Nc3sc(C)c(C)c3C(N)=O)c3ccccc3n2)c1

EC50 [18]: > 32 µM (inactive) | EC50 [19]: 1.73 µM (active) | EC50 [20]: > 32 µM (inactive) | EC50 [21]: 3.04 µM (active)
Compound: Fc1ccc(CSc2nnc(-c3ccccn3)n2Cc2cccs2)c(F)c1F

IC50 [22]: 94.9 µM (active) | IC50 [23]: 11.4 µM (active)
Compound: CN[C@@H](C)C(=O)N[C@H](C(=O)N1CCC[C@H]1C(=O)Nc1ccc2ncccc2c1)C(C)C

IC50 [33]: > 20 µM (inactive) | IC50 [34]: > 20 µM (inactive)
Compound: Cc1ccc(S(=O)(=O)NCc2cccc(C(=O)NCCN(Cc3ccccc3)C(C)C)c2)cc1
